GI50 and TGI data for seven compounds are collected here from PubChem BioAssay (NCI).

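Exposure lasted 48 hours, with cells grown in 96-well plates and compounds tested at five concentrations. Here, GI50 denotes the concentration required for 50% inhibition of growth. Definition used: TGI = concentration required for complete inhibition of growth.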

Test systems include T-47D breast; SK-MEL-5 melanoma; MALME-3M melanoma; SN12C renal; EKVX NSCLC; COLO 205 colon; BT-549 breast; HL-60(TB) leukemia; LOX IMVI melanoma; TK-10 renal.
Common to all, as to test: growth of human tumour cells (NCI), 48 h

Take `CC(C)=CCc1c(O)cc(/C=C/c2cc(O)c3c(c2)C[C@@H]2C(C)(C)[C@H](O)[C@H](O)C[C@@]2(C)O3)cc1O`: the GI50 in the assay with T-47D breast is 1.85 µM; in the assay with SK-MEL-5 melanoma, 1.03 µM; in the assay with MALME-3M melanoma, 1.21 µM; in the assay on SN12C renal, 2.81 µM; in the assay with EKVX NSCLC it was 0.789 µM; in the assay with COLO 205 colon, 1.37 µM. In addition, the GI50 was 0.0553 µM with BT-549 breast, less than 0.001 µM in the assay with HL-60(TB) leukemia, 0.0021 µM in the assay on LOX IMVI melanoma and 0.479 µM with TK-10 renal. Besides, the TGI in the assay on T-47D breast is greater than 9.39 µM; in the assay with SK-MEL-5 melanoma, 2.32 µM; in the assay with MALME-3M melanoma it was 6.51 µM; with SN12C renal it was greater than 10 µM; with EKVX NSCLC it was 4.49 µM; in the assay with COLO 205 colon, 3.82 µM. Further, the TGI with BT-549 breast was greater than 7.23 µM; in the assay on HL-60(TB) leukemia it was 3.05 µM; in the assay with LOX IMVI melanoma, 3.02 µM; with TK-10 renal, greater than 3.1 µM.
`CC(=O)/C=C/C1=C(c2cc3ccccc3s2)c2ccccc2CC1`: the GI50 is 8.58 µM in the assay with T-47D breast; 16.3 µM in the assay with SK-MEL-5 melanoma; 26.6 µM with MALME-3M melanoma; 36.5 µM in the assay on SN12C renal; 39.5 µM with EKVX NSCLC; 29.9 µM with COLO 205 colon. The GI50 was 33.6 µM in the assay on BT-549 breast, 16.4 µM with HL-60(TB) leukemia, 20.3 µM in the assay on LOX IMVI melanoma and 61.1 µM with TK-10 renal. For the same compound, the TGI in the assay with T-47D breast is greater than 100 µM; in the assay with SK-MEL-5 melanoma, 35.3 µM; with MALME-3M melanoma it was 58.4 µM; in the assay on SN12C renal it was greater than 100 µM; in the assay on EKVX NSCLC it was greater than 100 µM; with COLO 205 colon it was greater than 100 µM. The TGI in the assay on BT-549 breast is greater than 100 µM; in the assay on HL-60(TB) leukemia, 98.2 µM; in the assay with LOX IMVI melanoma, 67.3 µM; in the assay on TK-10 renal, greater than 100 µM.
Turning to `COC(CCP(=O)(c1ccccc1)c1ccccc1)(C(=O)c1ccccc1)c1ccccc1` (stereo not given), the GI50 is 2.06 µM in the assay with T-47D breast; 2.39 µM in the assay on SK-MEL-5 melanoma; 2.78 µM in the assay on MALME-3M melanoma; 5.23 µM with SN12C renal; 4.37 µM in the assay on EKVX NSCLC; 1.64 µM in the assay with COLO 205 colon. Moreover, the GI50 is 4.55 µM in the assay with BT-549 breast, 2.29 µM in the assay with HL-60(TB) leukemia, 5.12 µM in the assay with LOX IMVI melanoma and 2.94 µM in the assay with TK-10 renal. Besides, the TGI came out at 12.3 µM with T-47D breast; 10.9 µM in the assay on SK-MEL-5 melanoma; 15.4 µM in the assay with MALME-3M melanoma; 20 µM in the assay on SN12C renal; 16.9 µM with EKVX NSCLC; 3.82 µM in the assay on COLO 205 colon. In addition, the TGI was 15.6 µM in the assay with BT-549 breast, greater than 100 µM with HL-60(TB) leukemia, 19.6 µM in the assay with LOX IMVI melanoma and 14.1 µM in the assay with TK-10 renal.
For the compound `COc1ccc(C(O)CNC(=O)c2ccccc2)cc1` (stereo not given), the TGI in the assay with T-47D breast, in the assay on SK-MEL-5 melanoma, in the assay on MALME-3M melanoma, in the assay with SN12C renal, in the assay with EKVX NSCLC and with COLO 205 colon was greater than 100 µM each time. The TGI in the assay with BT-549 breast, with HL-60(TB) leukemia, in the assay on LOX IMVI melanoma and with TK-10 renal was greater than 100 µM throughout.
For the compound `CN1CCN(c2ccc3c4c(cccc24)C(=O)N(CCN2CCN(CCCN4CCN(CCN5C(=O)c6cccc7c(N8CCN(C)CC8)ccc(c67)C5=O)CC4)CC2)C3=O)CC1`, the GI50 in the assay with T-47D breast was 19.8 µM; in the assay on SK-MEL-5 melanoma, 8.59 µM; with MALME-3M melanoma, 8.36 µM; in the assay with SN12C renal, 4.02 µM; with EKVX NSCLC, 8.16 µM; with COLO 205 colon it was 5.6 µM. Besides, the GI50 is 9.92 µM in the assay on BT-549 breast, 1.49 µM with HL-60(TB) leukemia, 4.56 µM in the assay on LOX IMVI melanoma and 9.38 µM in the assay on TK-10 renal. In addition, the TGI with T-47D breast stood at 50 µM; in the assay on SK-MEL-5 melanoma, 18.6 µM; with MALME-3M melanoma it was 19.8 µM; in the assay with SN12C renal it was 11.2 µM; in the assay with EKVX NSCLC it was 17.3 µM; with COLO 205 colon it was 21.8 µM. Moreover, the TGI in the assay with BT-549 breast was 19.7 µM; in the assay with HL-60(TB) leukemia, 7.15 µM; in the assay with LOX IMVI melanoma it was 11.6 µM; in the assay on TK-10 renal, 21.1 µM.
`COc1cccc(/C=N\Nc2ccc([N+](=O)[O-])cn2)c1O`: the GI50 is 3.83 µM with T-47D breast; 1.76 µM with SK-MEL-5 melanoma; 4.11 µM in the assay with MALME-3M melanoma; 4 µM with SN12C renal; 3.59 µM with EKVX NSCLC; 27.8 µM with COLO 205 colon. For the same compound, the GI50 is 4.47 µM in the assay on BT-549 breast, 3.13 µM with HL-60(TB) leukemia, 2.58 µM with LOX IMVI melanoma and 7.31 µM in the assay with TK-10 renal. Besides, the TGI in the assay with T-47D breast was 89.1 µM; with SK-MEL-5 melanoma it was 5.92 µM; with MALME-3M melanoma it was 36 µM; with SN12C renal, 62 µM; with EKVX NSCLC it was 29.3 µM; with COLO 205 colon, greater than 100 µM. For the same compound, the TGI was 30 µM in the assay with BT-549 breast, 17.7 µM with HL-60(TB) leukemia, 14.6 µM in the assay on LOX IMVI melanoma and greater than 100 µM with TK-10 renal.
As to `O=C1C=C(Nc2ccccc2C(=O)CC(=O)C(=O)Nc2cccc(C(F)(F)F)c2)c2ccccc2C1=O`, the TGI in the assay on T-47D breast was greater than 100 µM; in the assay on SK-MEL-5 melanoma it was 30.8 µM; in the assay on MALME-3M melanoma, 28.7 µM; in the assay with SN12C renal, 36.3 µM; in the assay with EKVX NSCLC, 98.7 µM; in the assay with COLO 205 colon, greater than 100 µM. For the same compound, the TGI with BT-549 breast is 49.1 µM; with HL-60(TB) leukemia, 24.2 µM; with LOX IMVI melanoma it was 27.3 µM; in the assay on TK-10 renal it was greater than 100 µM.
